According to US20240294476A1, “CRYSTAL FORM OF QUINOLINE COMPOUND AND PROCESS FOR ITS PRODUCTION” (NISSAN CHEMICAL CORPORATION, priority 2003, published 2024):

Key:
[1] = Stability data of drug substance (influence of water content), storage at 40° C.; format: physicochemical
Excerpt: (§1) However, in the conventional method for producing pitavastatin calcium, there has been no disclosure relating to the water content or the crystal form.

[2] = Crystallinity by powder X-ray diffraction after drying; format: physicochemical; conditions: dried in a usual manner, water content at most 4%
Excerpt: as §1

[3] = 40° C. air tight, Initial stage

Analogous substance (%) ([1]; 40° C. air tight, 30 Days): 0.208%
Pitavastatin calcium (%) ([1]; 40° C. air tight, 30 Days): 99.42%
Water content (%) ([1]; 40° C. air tight, 30 Days): 7.85%
Analogous substance (%) ([1]; 40° C. air tight, 60 Days): 0.189%
Pitavastatin calcium (%) ([1]; 40° C. air tight, 60 Days): 99.79%
Water content (%) ([1]; 40° C. air tight, 60 Days): 7.88%
Analogous substance (%) ([1]; 40° C. air tight, 90 Days): 0.211%
Pitavastatin calcium (%) ([1]; 40° C. air tight, 90 Days): 99.64%
Water content (%) ([1]; 40° C. air tight, 90 Days): 7.81%
Analogous substance (%) [1, 3]: 0.179%
Pitavastatin calcium (%) [1, 3]: 99.38%
Water content (%) [1, 3]: 7.89%
Analogous substance (%) ([1]; 40° C. open air, 30 Days): 0.742%
Pitavastatin calcium (%) ([1]; 40° C. open air, 30 Days): 99.26%
Water content (%) ([1]; 40° C. open air, 30 Days): 2.45%
Analogous substance (%) ([1]; 40° C. open air, 60 Days): 1.347%
Pitavastatin calcium (%) ([1]; 40° C. open air, 60 Days): 97.19%
Water content (%) ([1]; 40° C. open air, 60 Days): 1.99%
Analogous substance (%) ([1]; 40° C. open air, 90 Days): 2.099%
Pitavastatin calcium (%) ([1]; 40° C. open air, 90 Days): 96.49%
Water content (%) ([1]; 40° C. open air, 90 Days): 1.77%
Analogous substance (%) ([1]; 40° C. open air, Initial stage): 0.179%
Pitavastatin calcium (%) ([1]; 40° C. open air, Initial stage): 99.38%
Water content (%) ([1]; 40° C. open air, Initial stage): 7.89%
stability during the storage ([1]; pitavastatin calcium which has become amorphous): very poor stability
Compound: O=C(O)C[C@H](O)C[C@H](O)/C=C/c1c(C2CC2)nc2ccccc2c1-c1ccc(F)cc1 [Pitavastatin calcium, monocalcium bis[(3R,5S,6E)-7-(2-cyclopropyl-4-(4-fluorophenyl)-3-quinolyl)-3,5-dihydroxy-6-heptenoate]]
crystallinity (powder X-ray diffraction) [2]: decrease to a state close to an amorphous state
